Reference: EP0641569A1, “ANTIPRURITIC” (ONO PHARMACEUTICAL CO., LTD., priority 1992, dated 1993)

Legend:
Acute toxicity in mice = conditions: Jcl-ICR, mouse, in vivo, read-out: LD₅₀
Procedure: (§1) Compound A was orally or subcutaneously administered to each ten male and female 6-weeks aged Jcl-ICR mice and Jcl-SD rats, respectively per group. Two groups of Compound A (1000 and 2000 mg/kg) were used by suspending into 0.5% carboxymethyl cellulose (CMC) aqueous solution at the concentration of 100 mg/ml.

Acute toxicity in rats = conditions: Jcl-SD, rat, in vivo, read-out: LD₅₀
Procedure: as §1

patients in hemodialysis = experiment: Treatment for pruritus cutanea in hemodialysis (improvement score of itching and rash); assay type: in vivo, human; conditions: for improvement in itching: four patients in hemodialysis with severe itching, no effect with other agents, hydrate
Procedure: 8-[p-(4-phenylbutoxy)benzoyl]amino-2-(tetrazol-5-yl)-4-oxo-4H-1-benzopyran·1/2 hydrate (abbreviated as "Compound A" hereafter) were administered at the dose of 225 mg or 450 mg per day to four patients in hemodialysis (dialyzed for 3 to 11 years) who have severe itching and show no effect with other agents [no effect even with antihistamine, azerastin (anti-allergy agent already on the market) and steroid ointment]. The evaluation was carried out by improvement score of subjective symptom according to "The Standard of degree of Itching" and of rash (judged by slide).

[1] = 225 mg or 450 mg per day, four patients in hemodialysis

SMILES | LD50 (Acute toxicity in mice; po, orally, female) | LD50 (Acute toxicity in mice; po, orally, male) | LD50 (Acute toxicity in mice; sc, subcutaneously, female) | LD50 (Acute toxicity in mice; sc, subcutaneously, male) | LD50 (Acute toxicity in rats; po, orally, female) | LD50 (Acute toxicity in rats; po, orally, male) | LD50 (Acute toxicity in rats; sc, subcutaneously, female) | LD50 (Acute toxicity in rats; sc, subcutaneously, male) | side effect (patients in hemodialysis; [1]) | subjective symptom and objective symptom (rash), daytime and nighttime (patients in hemodialysis; [1]) | improvement in itching (patients in hemodialysis; 225 mg or 450 mg per day) | improvement in itching (patients in hemodialysis; 225 mg or 450 mg per day, listed as 8-[p-(4-phenylbutoxy)benzoyl]amino-2-(tetrazol-5-yl)-4-oxo-4H-1-benzopyran semih) | effect on itching (patients in hemodialysis; earlier treatment of the same four patients with other agents)
O=C(Nc1cccc2c(=O)cc(-c3nnn[nH]3)oc12)c1ccc(OCCCCc2ccccc2)cc1 [Compound A, 8-[p-(4-phenylbutoxy)benzoyl]amino-2-(tetrazol-5-yl)-4-oxo-4H-1-benzopyran·1/2 hydrate] | > 2000 mg/kg | > 2000 mg/kg | > 2000 mg/kg | > 2000 mg/kg | > 2000 mg/kg | > 2000 mg/kg | > 2000 mg/kg | > 2000 mg/kg | no side effect | Improvement was shown | became better | Remarkable improvement | –
CN1CCCC(n2nc(Cc3ccc(Cl)cc3)c3ccccc3c2=O)CC1 (stereo not shown) [azerastin, reference compound] | – | – | – | – | – | – | – | – | – | – | – | – | no effect
